# According to patent publication US10426751B2, “Allosteric activators for treatment of phenylketonuria” (MCMASTER UNIVERSITY, priority 2015, dated 2019):
# Changes are numbered by the printed parent chain.
# Experiments:
# Format in all cases: biochemical
# WT-PAH = molecular target: T1, WT-PAH (Homo sapiens, UniProt P00439); assay: Chaperone (refolding) assay: PAH activity after dilution from 6.0 M to 0.5 M GndCl; conditions: ligand 20 μM
# T1 construct: made in house; the paragraph itself says 'eukaryotic cell cultures' (pMAL vector, Martinez laboratory, University of Bergen)
# T1 sequence (P00439 1-452): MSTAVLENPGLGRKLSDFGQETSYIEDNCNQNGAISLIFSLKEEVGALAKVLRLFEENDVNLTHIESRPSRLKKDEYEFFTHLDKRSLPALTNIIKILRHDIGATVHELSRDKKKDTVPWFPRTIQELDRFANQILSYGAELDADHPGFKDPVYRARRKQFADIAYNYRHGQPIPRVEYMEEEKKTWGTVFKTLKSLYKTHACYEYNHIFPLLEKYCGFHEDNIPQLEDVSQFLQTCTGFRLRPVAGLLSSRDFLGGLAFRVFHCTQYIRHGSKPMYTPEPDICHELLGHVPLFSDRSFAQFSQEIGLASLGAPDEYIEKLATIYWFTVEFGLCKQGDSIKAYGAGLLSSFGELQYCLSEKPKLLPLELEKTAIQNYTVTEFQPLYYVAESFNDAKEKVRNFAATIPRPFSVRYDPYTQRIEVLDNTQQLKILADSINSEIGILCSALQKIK
# Experimental: (§1) For instance, a recovery of 50% of residual enzyme activity was achieved without ligand when PAH was incubated in 8.0 M urea after its dilution to 0.5 M urea to trigger protein refolding. In order to further reduce enzyme reversibility, the recovery of PAH activity was subsequently assessed when it was incubated using 6.0 M GndCl for 10 min and subsequently diluted to 0.5 M GndCl in the presence or absence of screen-positive ligands (20 μM) in enzyme reaction buffer with PAH activity measurements performed by CE as described previously. […] Two lead compounds and several analogs of SA were subsequently tested using two different mutants of PAH (I65T and R261Q) without chemical denaturants after the two-tiered screening.
# I65T PAH mutant = molecular target: T2, I65T PAH mutant (Homo sapiens, UniProt P00439, I65T); assay: PKU-mutant activity enhancement without chemical denaturants, CE-UV; conditions: ligand 20 μM, no denaturant
# T2 construct: made in house; the paragraph itself says 'eukaryotic cell cultures' (pMAL vector)
# T2 sequence (P00439 1-452 I65T): T1 sequence (P00439 1-452) with I65T
# Experimental: (§2) Expression of recombinant human WT-PAH and two PAH mutants ([…]) as fusion protein with maltose-binding protein in […] using pMAL expression vector was performed by the Martinez laboratory at the University of Bergen as described in Svebak et al., Biochem. J., 1995, 306, 589-597. Briefly, purification of the fusion proteins expressed in the pMAL vector system was performed using affinity chromatography followed by size-exclusion chromatography to remove low molecular weight components. Subsequently, the fusion proteins were cleaved by the restriction protease factor Xa and then phosphorylated by cyclic adenosine monophosphate (cAMP)-dependent protein kinase. The two clinically relevant PAH mutants, I65T and R261Q comprise single-point mutations in the regulatory and catalytic domain, respectively which are associated with highly variable phenotypes ranging from mild to classical PKU. For instance, patients with R261Q genotypes are reported to have inconsistent responses to BH4 therapy. In this work, I65T and R261Q PAH mutants were measured to have residual catalytic activities of (35±1)% and (5±0.5)% relative to WT PAH under standardized conditions (i.e., enzyme concentrations, assay buffer etc.), respectively. Stock solutions of WT-PAH and PAH mutants were prepared in enzyme reaction buffer (20 mM HEPES pH 7.0, 200 mM NaCl), and divided into separate 10 μL aliquots in 0.5 mL sterilized centrifuge tubes prior to storage at −80° C. Note that all enzyme assays were performed on aliquots of frozen enzymes thawed slowly in the fridge prior to daily use.
# (§3) Tetrameric human phenylalanine hydroxylase (PAH) enzyme kinetic assays were performed off-line under standardized conditions prior to quantification of Tyr formation by CE with UV detection. Enzyme assays were performed by first mixing together Phe (1 mM), catalase (100 nM) and PAH (0.25 μM/subunit) in a reaction buffer (20 mM HEPES and 200 mM NaCl, pH 7.0) that were equilibrated at 25° C. for 4 min. Then, ferrous (Fe^2+) ammonium sulfate (100 μM) was added to the solution for 1 min and the reaction was subsequently initiated by addition of BH4 ([…]) with DTT (5 mM) using a total volume of 100 μL. The reaction mixture was then vortexed for 60 s followed by sonication for 2 min prior to centrifugation for 10 s at 4 g and storage in a refrigerator (+4° C.). An aliquot (20 μL) was withdrawn from the quenched enzyme reaction and placed in a micro vial containing Me-Tyr as IS (100 μM) prior to CE analysis. The stability of the quenched enzyme reaction was confirmed by intermittent analysis of PAH activity over 6 h at room temperature, and no significant changes in the Tyr/IS or Phe/Tyr response ratio were measured. Enzymatic reactions were performed for both WT-PAH and two PAH mutants by pre-equilibrating each ligand for 10 min prior to addition of ferrous ion and BH4/DDT as described in enzyme reaction protocol in order to assess for ligand-induced PAH inhibition or activation.
# as §1
# R261Q PAH mutant = molecular target: T3, R261Q PAH mutant (Homo sapiens, UniProt P00439, R261Q); assay: as above; conditions: ligand 20 μM, no denaturant
# T3 construct: made in house; the paragraph itself says 'eukaryotic cell cultures' (pMAL vector)
# T3 sequence (P00439 1-452 R261Q): T1 sequence (P00439 1-452) with R261Q
# Experimental: as §2, §3, §1
SMILES,increase in WT-PAH activity after refolding relative to ligand-free apo-PAH (WT-PAH),activity enhancement of I65T PAH mutant (I65T PAH mutant; listed as HI) [fold],activity enhancement of R261Q PAH mutant (R261Q PAH mutant; listed as HI) [fold],activity enhancement of I65T PAH mutant (I65T PAH mutant) [fold],activity enhancement of R261Q PAH mutant (R261Q PAH mutant) [fold]
"Nc1c(-c2ccc3ccccc3n2)c2ccc([N+](=O)[O-])cc2c(=O)n1Cc1ccccc1 [compound III, 3-amino-2-benzyl-7-nitro-4-(2-quinolyl)-1,2-dihydroisoquinolin-1-one]",about 5 fold,~1.5,~1.5,,
"Cc1ccnc(-n2c(=S)[nH]c3sc(C)c(C)c3c2=O)c1 [compound IV, 5,6-dimethyl-3-(4-methyl-2-pyridinyl)-2-thioxo-2,3-dihydrothieno[2,3-d] pyrimidin-4(1H)-one]",~1.5 fold,,,~1.5,~1.5
